Measurements: article PMC11796224, “Merck Open Global Health Library in vitro screening against Schistosoma mansoni identified two new substances with antischistosomal activities for further development” (Parasites & Vectors, 2025)
Where two headings read alike, the source gives them in different places.

Tests used:
adult S. mansoni couples = assay: In vitro screening of OGHL compounds and analogues against adult S. mansoni couples (Giessen); assay type: cell-based, Schistosoma mansoni; details: 10 µM; for Effect on egg production: after 24 h, compared to control
Description: For in vitro culture in Giessen, M199 medium (Gibco) containing 10% newborn calf serum, 1% HEPES (1 M) and 1% ABAM solution (10,000 units penicillin, 10 mg streptomycin and 25 µg amphotericin B per millilitre) were used. After perfusion, the worms were transferred to petri dishes with 5 mL medium using featherweight tweezers. The worms were cultured at 37 °C and 5% CO2. After 24 h, stably paired couples were selected for inhibitor assays.
The initial screening by the Giessen team covered the 250 compounds of the OGHL, and in a subsequent, second screening approach, an additional 58 analogues of the compounds OGHL22 and OGHL121, which were tested on S. mansoni couples in vitro. For each compound, three replicates of five couples randomised from different hamsters were used. The couples were transferred to 6-well plates (or 12-well plates) containing 2 mL pre-heated medium. For each compound, the stock solution was pre-diluted in pre-heated medium, and then added to each replicate, resulting in a final volume of 2.5 mL and a final concentration of 10 µM. A negative control was included for all assays. For this, three replicates were prepared with DMSO (0.1%) as volume substitution of the stock solution. The worms were cultured at 37 °C and 5% CO2. As physiological parameters, worm motility, pairing stability, and attachment were assessed after 4 h and 24 h. After 24 h, egg production was also estimated (see below).
For the first screening approach, the Giessen team evaluated pairing stability by counting couples at the time of scoring. Attachment was determined by counting the number of worms (couples or single worms) that were attached to any surface. Motility was scored on a scale of 0–4. The average activity of the worms in the negative control was used as a reference value for normal activity: 4 indicated increased activity, 3 normal activity, 2 reduced activity, 1 little activity with occasional head and tail movements and/or gut movement, 0 no activity for at least 20 s. The number of eggs was estimated after 24 h. Compared to the control, categories for egg production were defined as fewer eggs (score 0), similar numbers of egg (score 1) and more eggs (score 2). The corresponding percentages of the scores were determined based on three replicates. Score 0 corresponded to less than 50% eggs, score 1 to 50–200%, and score 2 to over 200% of the egg count compared to the negative control. The means of the scores were later normalized to the range 0–2 (0–200%).

[1] = test system: newly transformed schistosomula (NTS); assay: In vitro screening against newly transformed schistosomula (Basel); assay type: cell-based, Schistosoma mansoni; details: 10 µM, 72 h incubation, Basel team
Description: At the Basel lab, infected B. glabrata snails were placed for 4 h under a light source to initiate the shedding of cercariae, which were collected, mechanically transformed into NTS, and kept in M199 medium supplemented with 5% fetal calf serum (FCS), 1% Mäsermix, and 1% penicillin/streptomycin (pen./strep.) 10,000 U/ml, at 37 °C and 5% CO2 [27]. To collect adult S. mansoni, mesenteric veins of infected hamsters were dissected on day 49 post-infection. The worms were placed in supplemented RPMI 1640 medium (containing 5% FCS, 1% pen., and 100 μg/ml strep.) and incubated at 37 °C with 5% CO2 until further use.
The Basel team performed the screening as follows: the stock solutions of each compound from the library (10 mM) were diluted with M199 medium (supplemented with 1% pen./strep., 1% Mäsermix, 5% FCS) and NTS solution (0.7 NTS/µL) in a transparent flat-bottom 96-well plate (Sarstedt, Switzerland), resulting in a final volume of 250 µL, 30–40 NTS, and a drug concentration of 10 µM. For adults, the drugs were diluted to 10 µM in 2 mL with RPMI 1640 medium (supplemented with 1% pen./strep. and 5% FCS) in a 24-well plate (Sarstedt, Switzerland), and three schistosome couples were added. […] For both life stages, DMSO served as a negative control (< 1% of the final volume). The plates were incubated at 37 °C and 5% CO2. […]

Schistosoma mansoni = details: cited from earlier work

Row | Structure (SMILES) | Effect on egg production (adult S. mansoni couples) | further results
1 | O=C(C1CCCCC1)N1CC(=O)N2CCc3ccccc3[C@H]2C1 [OGHL00245] |  | Couples separated after 4 h (adult S. mansoni couples): > 50%; Couples separated after 24 h (adult S. mansoni couples): separation of all couples
2 | Cc1cc(C2CCC2)c(S(C)(=O)=O)cc1C(=O)N=C(N)N [OGHL00061] | affected | 
3 | CCCCCCN(Cc1ccc(C#Cc2ccc(CCCC)cc2)cc1)c1ccc(O)c(C(=O)O)c1 [OGHL00126] | affected | 
4 | O=C(O)c1ccc(-c2nc(NCc3ccc4c(c3)OCO4)c3cc(Cl)sc3n2)cc1 [OGHL00093] | affected | 
5 | COc1ccc(CNc2nc(CCCCC(=O)O)nc3sc4c(c23)CCCC4)cc1Cl [OGHL00092] | affected | 
6 | COc1ccc(OCC(N)=O)cc1-c1cn2cc(C(=O)NCCc3c(OC)cccc3OC)sc2n1 [OGHL00241] | affected | 
7 | COc1nc(/C=C/c2nc3n(n2)CCCC3c2ccccc2C(F)(F)F)ccc1-n1cnc(C)c1 (centres unmarked) [OGHL00208] | affected | 
8 | CCCSc1cc(C)c(C(=O)N=C(N)N)cc1S(C)(=O)=O [OGHL00050] | affected | 
9 | CCCCc1nc2ccn(Cc3ccccc3C(=O)O)c(=O)c2n1Cc1ccc(-c2ccccc2-c2nn[nH]n2)cc1 [OGHL00034] | affected | 
10 | COC(=O)c1cc(C(=O)N=C(N)N)c(C)cc1C [OGHL00094] | affected | 
11 | COc1cc(C(=O)Nc2cn(Cc3ccc(Cl)c(Cl)c3)nn2)ccc1-n1cnc(C)c1 [OGHL00219] | affected | 
12 | COc1ccc(OCC(=O)O)cc1-c1cn2cc(C(=O)NCCc3c(OC)cc(Cl)cc3OC)sc2n1 [OGHL00248] | affected | 
13 | O=C(C1CCCCC1)N1CC(=O)N2CCc3ccccc3[C@@H]2C1 [OGHL00244, (R)-PZQ, reference compound] | drastically reduced | Activity against NTS [1]: greater than 65%; Attachment after 4 h (adult S. mansoni couples; adult couples, Giessen team): strong effects on attachment capacity; Pairing stability after 4 h (adult S. mansoni couples; adult couples, Giessen team): no effect on pairing stability; Pairing stability after 24 h (adult S. mansoni couples; adult couples, Giessen team): no effect on pairing stability
14 | CC1(C)Oc2ccc(C#N)cc2[C@H](n2ccccc2=O)[C@H]1O [OGHL00027] | affected | 
15 | O=C(C1CCCCC1)N1CC(=O)N2CCc3ccccc3C2C1 (centres unmarked) [PZQ, praziquantel] |  | EC50 (Schistosoma mansoni; at 4 h): 0.1 µg/mL; EC50 (Schistosoma mansoni; at 72 h, ref 32, read-out: EC50): 100 nM; EC50 (Schistosoma mansoni; at 72 h, ref 33): 0.05 µg/mL; Motility score in the initial approach (adult S. mansoni couples; within 24 h): about 0
16 | O=C(O)c1ccc(-c2nc(NCc3ccccc3)c3c4c(sc3n2)CCCC4)cc1 [OGHL00079] | affected | 
17 | COc1ccc(CNc2nc(CCCCC(=O)O)nc3sc4ccccc4c23)cc1Cl [OGHL00101] | affected | 
18 | CCc1cc(C)c(C(=O)N=C(N)N)cc1S(C)(=O)=O [OGHL00053] | affected | 
